# Test results as given in PMC8788362, “Rational design and synthesis of 2-(1H-indazol-6-yl)-1H-benzo[d]imidazole derivatives as inhibitors targeting FMS-like tyrosine kinase 3 (FLT3) and its mutants” (Journal of Enzyme Inhibition and Medicinal Chemistry, 2022).
# Residue numbers refer to the chain shown, from its start.
# Tests used:
# FLT3 (D835Y) = target: T1, FLT3 (D835Y) (Homo sapiens, UniProt P36888, D835Y); experiment: Reaction Biology Kinase HotSpot radiometric kinase assay; type: biochemical
# T1 construct: purchased Reaction Biology Corp. (Kinase HotSpot service)
# T1 sequence (P36888 27-993 D835Y): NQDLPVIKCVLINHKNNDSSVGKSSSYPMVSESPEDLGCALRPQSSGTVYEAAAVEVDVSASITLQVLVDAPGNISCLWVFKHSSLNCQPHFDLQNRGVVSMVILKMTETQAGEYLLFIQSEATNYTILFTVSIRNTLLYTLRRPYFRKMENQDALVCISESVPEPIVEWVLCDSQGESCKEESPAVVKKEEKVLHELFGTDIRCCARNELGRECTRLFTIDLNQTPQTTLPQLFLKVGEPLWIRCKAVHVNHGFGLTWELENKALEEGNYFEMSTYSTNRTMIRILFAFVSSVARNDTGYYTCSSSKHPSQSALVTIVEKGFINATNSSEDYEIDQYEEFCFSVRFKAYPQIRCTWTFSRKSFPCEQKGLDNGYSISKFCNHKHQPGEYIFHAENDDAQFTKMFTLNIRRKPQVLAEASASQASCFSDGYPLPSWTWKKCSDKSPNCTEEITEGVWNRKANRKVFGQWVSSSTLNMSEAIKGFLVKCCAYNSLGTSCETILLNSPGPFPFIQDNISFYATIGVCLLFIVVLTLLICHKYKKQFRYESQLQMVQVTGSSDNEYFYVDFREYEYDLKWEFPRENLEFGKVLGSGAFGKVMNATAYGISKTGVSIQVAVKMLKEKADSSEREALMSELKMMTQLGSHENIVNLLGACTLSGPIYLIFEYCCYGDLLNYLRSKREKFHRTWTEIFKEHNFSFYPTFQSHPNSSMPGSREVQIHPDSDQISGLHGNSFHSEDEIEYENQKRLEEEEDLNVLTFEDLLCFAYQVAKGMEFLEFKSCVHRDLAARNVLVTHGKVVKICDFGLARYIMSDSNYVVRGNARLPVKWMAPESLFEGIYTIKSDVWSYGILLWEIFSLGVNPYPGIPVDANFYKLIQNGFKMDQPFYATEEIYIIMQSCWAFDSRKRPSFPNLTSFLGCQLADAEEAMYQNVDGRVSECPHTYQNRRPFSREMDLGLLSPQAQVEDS
# Source text: (§1) (specific activity approx. 500 cpm/pmol, concentration as required).
# FLT3 wild type = target: T2, FLT3 wild type (Homo sapiens, UniProt P36888); experiment: as above; type: biochemical; details: ATP 10 µM; read-out: FLT3 IC50
# T2 construct: purchased Reaction Biology Corp. (Kinase HotSpot service)
# T2 sequence (P36888 27-993): T1 sequence (P36888 27-993 D835Y) with Y809D
# Source text: as §1
IC50 (FLT3 (D835Y)) [nM],IC50 (FLT3 wild type) [nM],melting point [°C],SMILES
21,181,228 to 230,"CN1CCN(c2cc(C(=O)Nc3ccc4[nH]c(-c5ccc6cn[nH]c6c5)nc4c3)cc(C(F)(F)F)c2)CC1 [8a, N-(2-(1H-Indazol-6-yl)-1H-benzo[d]imidazol-5-yl)-3–(4-methylpiperazin-1-yl)-5-(trifluoromethyl)benzamide]"
110,639,239 to 241,"Cc1cn(-c2cc(C(=O)Nc3ccc4[nH]c(-c5ccc6cn[nH]c6c5)nc4c3)cc(C(F)(F)F)c2)cn1 [8b, N-(2-(1H-Indazol-6-yl)-1H-benzo[d]imidazol-5-yl)-3–(4-methyl-1H-imidazol-1-yl)-5-(trifluoromethyl)benzamide]"
108,470,251 to 253,"Cc1nccn1-c1cc(C(=O)Nc2ccc3[nH]c(-c4ccc5cn[nH]c5c4)nc3c2)cc(C(F)(F)F)c1 [8c, N-(2-(1H-Indazol-6-yl)-1H-benzo[d]imidazol-5-yl)-3–(2-methyl-1H-imidazol-1-yl)-5-(trifluoromethyl)benzamide]"
151,1030,195 to 196,"O=C(Nc1ccc2[nH]c(-c3ccc4cn[nH]c4c3)nc2c1)c1cc(N2CCOCC2)cc(C(F)(F)F)c1 [8d, N-(2-(1H-Indazol-6-yl)-1H-benzo[d]imidazol-5-yl)-3-morpholino-5-(trifluoromethyl)benzamide]"
44,154,160 to 161,"CN1CCN(c2ccc(C(=O)Nc3ccc4[nH]c(-c5ccc6cn[nH]c6c5)nc4c3)cc2C(F)(F)F)CC1 [8e, N-(2-(1H-Indazol-6-yl)-1H-benzo[d]imidazol-5-yl)-4–(4-methylpiperazin-1-yl)-3-(trifluoromethyl)benzamide]"
370,2510,202 to 204,"O=C(Nc1ccc2[nH]c(-c3ccc4cn[nH]c4c3)nc2c1)c1ccc(N2CCOCC2)c(C(F)(F)F)c1 [8f, N-(2-(1H-Indazol-6-yl)-1H-benzo[d]imidazol-5-yl)-4-morpholino-3-(trifluoromethyl)benzamide]"
63,1100,258 to 260,"O=C(Nc1ccc2[nH]c(-c3ccc4cn[nH]c4c3)nc2c1)c1cnn(-c2ccccc2)c1C(F)(F)F [8g, N-(2-(1H-Indazol-6-yl)-1H-benzo[d]imidazol-5-yl)-1-phenyl-5-(trifluoromethyl)-1H-pyrazole-4-carboxamide]"
82,702,147 to 149,"CC(C)(C)c1cc(C(=O)Nc2ccc3[nH]c(-c4ccc5cn[nH]c5c4)nc3c2)no1 [8h, N-(2-(1H-Indazol-6-yl)-1H-benzo[d]imidazol-5-yl)-5-(tert-butyl)isoxazole-3-carboxamide]"
84,676,215 to 217,"O=C(Nc1ccc2[nH]c(-c3ccc4cn[nH]c4c3)nc2c1)c1ccc(Cl)c(C(F)(F)F)c1 [8i, N-(2-(1H-Indazol-6-yl)-1H-benzo[d]imidazol-5-yl)-4-chloro-3-(trifluoromethyl)benzamide]"
103,514,255 to 257,"O=C(Nc1ccc2[nH]c(-c3ccc4cn[nH]c4c3)nc2c1)c1ccc(Cl)c(Cl)c1 [8j, N-(2-(1H-Indazol-6-yl)-1H-benzo[d]imidazol-5-yl)-3,4-dichlorobenzamide]"
191,761,206 to 208,"COc1ccc(/C=C/C(=O)Nc2ccc3[nH]c(-c4ccc5cn[nH]c5c4)nc3c2)cc1 [8k, (E)-N-(2-(1H-Indazol-6-yl)-1H-benzo[d]imidazol-5-yl)-3–(4-methoxyphenyl)acrylamide]"
261,1170,184 to 186,"CC(C)(C)c1cc(NC(=O)Nc2ccc3[nH]c(-c4ccc5cn[nH]c5c4)nc3c2)no1 [8l, 1–(2-(1H-Indazol-6-yl)-1H-benzo[d]imidazol-5-yl)-3–(5-(tert-butyl)isoxazol-3-yl)urea]"
1010,3580,144 to 146,"O=C(Nc1ccc(Cl)c(Cl)c1)Nc1ccc2[nH]c(-c3ccc4cn[nH]c4c3)nc2c1 [8m, 1–(2-(1H-Indazol-6-yl)-1H-benzo[d]imidazol-5-yl)-3–(3,4-dichlorophenyl)urea]"
113,287,283 to 285,"CN(C)C1CCN(c2cc(C(=O)Nc3ccc4[nH]c(-c5ccc6cn[nH]c6c5)nc4c3)cc(C(F)(F)F)c2)C1 (stereo not drawn) [8n, N-(2-(1H-Indazol-6-yl)-1H-benzo[d]imidazol-5-yl)-3–(3-(dimethylamino)pyrrolidin-1-yl)-5-(trifluoromethyl)benzamide]"
120,841,221 to 223,"CCN(CC)C1CCN(c2cc(C(=O)Nc3ccc4[nH]c(-c5ccc6cn[nH]c6c5)nc4c3)cc(C(F)(F)F)c2)C1 (stereo not drawn) [8o, N-(2-(1H-Indazol-6-yl)-1H-benzo[d]imidazol-5-yl)-3–(3-(diethylamino)pyrrolidin-1-yl)-5-(trifluoromethyl)benzamide]"
131,409,154 to 156,"O=C(Nc1ccc2[nH]c(-c3ccc4cn[nH]c4c3)nc2c1)c1cc(N2CCN(C3CC3)CC2)cc(C(F)(F)F)c1 [8p, N-(2-(1H-Indazol-6-yl)-1H-benzo[d]imidazol-5-yl)-3–(4-cyclopropylpiperazin-1-yl)-5-(trifluoromethyl)benzamide]"
174,525,150 to 152,"O=C(Nc1ccc2[nH]c(-c3ccc4cn[nH]c4c3)nc2c1)c1cc(CN2CCN(C3CC3)CC2)cc(C(F)(F)F)c1 [8q, N-(2-(1H-Indazol-6-yl)-1H-benzo[d]imidazol-5-yl)-3-((4-cyclopropylpiperazin-1-yl)methyl)-5-(trifluoromethyl)benzamide]"
25,158,175 to 177,"CN1CCC(Nc2cc(C(=O)Nc3ccc4[nH]c(-c5ccc6cn[nH]c6c5)nc4c3)cc(C(F)(F)F)c2)CC1 [8s, N-(2-(1H-Indazol-6-yl)-1H-benzo[d]imidazol-5-yl)-3-((1-methylpiperidin-4-yl)amino)-5-(trifluoromethyl)benzamide]"
87,285,166 to 168,"CCN1CCC(Nc2cc(C(=O)Nc3ccc4[nH]c(-c5ccc6cn[nH]c6c5)nc4c3)cc(C(F)(F)F)c2)CC1 [8t, N-(2-(1H-Indazol-6-yl)-1H-benzo[d]imidazol-5-yl)-3-((1-ethylpiperidin-4-yl)amino)-5-(trifluoromethyl)benzamide]"
55,289,293 to 295,"CN1CCC(Oc2cc(C(=O)Nc3ccc4[nH]c(-c5ccc6cn[nH]c6c5)nc4c3)cc(C(F)(F)F)c2)CC1 [8u, N-(2-(1H-Indazol-6-yl)-1H-benzo[d]imidazol-5-yl)-3-((1-methylpiperidin-4-yl)oxy)-5-(trifluoromethyl)benzamide]"
